Experimental data published in PMC13516501 (Pharmaceuticals, 2026).

Test: Single-dose, randomized, two-way crossover bioequivalence/pharmacokinetic studies A-D under fed conditions (plasma LC-MS/MS, NCA)
Conditions: reference formulation, Study C, metformin 850 mg, empagliflozin […] mg, n 35
Procedure: To ensure standardization, all subjects underwent at least 10 h of overnight pre-dose fasting on the study day. Participants then received a standardized high-fat, high-calorie breakfast (approximately 800 kcal). Dosing was administered 30 min after the start of this meal, followed by the intake of a 10% glucose solution (250 mL). The glucose solution was administered as a prophylactic measure to reduce the risk of hypoglycemia. It was not intended to simulate fed-state caloric intake beyond the standardized meal, in accordance with institutional clinical practice.
Each study period included a one-day treatment followed by a 14-day washout period. […] All adverse events, including duration, severity, causality, and outcomes, were strictly monitored and recorded by the principal investigator and medical staff throughout the study.
Promptly after collection, the samples were centrifuged at 3500 rpm for 10 min at 4 °C to separate the plasma. The harvested plasma was then transferred into appropriately labeled cryovials and immediately cryopreserved at −70 ± 15 °C until bioanalytical quantification. […]
The primary pharmacokinetic parameters evaluated to establish bioequivalence were the maximum observed plasma concentration (Cmax) and the area under the concentration–time curve from time zero to the last measurable concentration (AUC0-t). […]

CN(C)C(=N)N=C(N)N [Metformin]
AUC0-t (mean): 13,288.1 ng⋅h/mL
